Data as given in patent US10654867B2 (Genentech, Inc., priority 2016, dated 2020).

Target: T1, estrogen receptor alpha (ESR1) in MCF7 breast cancer cells (Homo sapiens, UniProt P03372)
T1 sequence (P03372 1-595): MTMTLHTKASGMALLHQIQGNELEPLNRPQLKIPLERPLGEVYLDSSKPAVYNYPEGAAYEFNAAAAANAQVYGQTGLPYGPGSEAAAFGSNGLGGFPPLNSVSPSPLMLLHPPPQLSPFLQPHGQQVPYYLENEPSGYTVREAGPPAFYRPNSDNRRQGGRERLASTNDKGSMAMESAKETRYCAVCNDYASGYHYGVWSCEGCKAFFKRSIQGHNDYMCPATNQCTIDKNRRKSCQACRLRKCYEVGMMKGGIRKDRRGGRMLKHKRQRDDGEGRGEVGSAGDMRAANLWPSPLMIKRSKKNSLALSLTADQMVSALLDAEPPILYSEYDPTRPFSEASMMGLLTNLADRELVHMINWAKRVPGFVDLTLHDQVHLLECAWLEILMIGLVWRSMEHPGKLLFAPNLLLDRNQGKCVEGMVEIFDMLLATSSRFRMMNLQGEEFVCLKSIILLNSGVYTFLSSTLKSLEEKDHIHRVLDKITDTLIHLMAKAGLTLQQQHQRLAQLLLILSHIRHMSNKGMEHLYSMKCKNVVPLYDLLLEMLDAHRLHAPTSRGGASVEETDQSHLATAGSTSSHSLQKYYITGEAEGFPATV
Assay: Breast Cancer Cell ERa High Content Fluorescence Imaging Degradation Assay (ER-alpha MCF7 HCS)
Format: cell-based
Design: endogenous in cells; host or cells: MCF7 breast cancer cells; key to ERalpha (WT) MCF7HCS (Sinf): % change in ERα level; DMSO = 0%, fulvestrant = 100% change
Details: 4 hours, plateau of the maximal effect; for ER-alpha MCF7HCS Sinf: DMSO and fulvestrant define 0% and 100% change in ESR1, Table 1a; for ERalpha (WT) MCF7HCS (Sinf): DMSO and fulvestrant define 0% and 100% change in ESR1, Table 1b
Protocol: All of the exemplary Formula I, II, and III compounds in Tables 1a and 1b were made and characterized by LCMS [M+H]^+ (liquid chromatography mass spectroscopy) with detection of parent ion. All of the exemplary Formula I, II, and III compounds in Tables 1a and 1b were tested for binding to ERa (Estrogen Receptor alpha) and biological activity according to the assays, protocols, and procedures of Examples 901-907. ER-alpha MCF7 HCS Sinf (%) values in Tables 1a and 1b were measured by the Breast Cancer Cell ERa High Content Fluorescence Imaging Degradation Assay of Example 901. ER-alpha MCF7 HCS EC50 (μM) values in Tables 1a and 1b were measured by the in vitro cell proliferation assays described in Examples 902 and 903. The rat uterine wet weight assays of Examples 906 and 907 allow rapid determination of compound antagonist activity in an ER responsive tissue (immature rat uterus) while competing against the native ER ligand estradiol, i.e. antagonist mode (Ashby, J.; et al (1997) Regulatory toxicology and pharmacology: RTP, 25 (3):226-31). Exemplary Formula I, II, and III compounds in Tables 1a and 1b have the following structures, corresponding names (ChemBioDraw, Version 12.0.2, CambridgeSoft Corp., Cambridge Mass.), and biological activity. Where more than one name is associated with a Formula I, II, and III compound or intermediate, the chemical structure shall define the compound.
MCF7 breast cancer cells were seeded on day 1 at a density of 10,000 cells per well in 384 well poly-lysine coated tissue culture plate (Greiner # T-3101-4), in 50 μL/well RPMI (phenol red free), 10% FBS (Charcoal stripped), containing L-glutamine. On day 2, compounds were prepared at 2 compound source concentrations: 100 μM and 1 μM (ultimately to give 2 overlapping titration curves), in a Labcyte low dead volume plate, 10 μL/well, and 10 μL of DMSO in designated wells for backfill, and 5 μM Fulvestrant (control compound) in designated wells. Compounds and controls were dispensed using a Labcyte Echo acoustic dispenser to dispense compounds with a predefined serial dilution (1.8×, 10 point, in duplicate) and appropriate backfill and control compounds (final total volume transferred was 417.5 nL and compound dispense volume ranges from 2.5 nL to 417.5 nL; 0.84% DMSO (v/v) final), ultimately producing a concentration range from 0.05 nM to 835 nM. Cell plates were incubated at 37° C., for 4 hours. Fixation and permeabilization were carried out using a Biotek EL406 plate washer and dispenser as follows. Cells were fixed by addition of 15 μL of 16% paraformaldehyde (Electron Microscopy Sciences #15710-S) directly to the 50 μL cell culture medium in each well using the peristaltic pump 5 μL cassette on a Biotek EL406 (final concentration of formaldehyde was 3.7% w/v). Samples were incubated 30 minutes. Well contents was aspirated and 50 μL/well of Phosphate Buffered Saline (PBS) containing 0.5% w/v bovine serum albumen, 0.5% v/v Triton X-100 (Antibody Dilution Buffer) was added to each well. Samples were incubated for 30 minutes. Well contents were aspirated and washed 3 times with 100 μL/well of PBS. Immunofluorescence staining of estrogen receptor alpha (ESR1) was carried out using a Biotek EL406 plate washer and dispenser as follows. The well supernatant was aspirated from the wells and 25 μL/well of anti-ESR1 mAb (F10) (Santa Cruz sc-8002) diluted 1:1000 in Antibody Dilution Buffer was dispensed. Samples were incubated for 2 hours at room temperature. Samples were washed 4 times with 100 μL/well of PBS. 25 uL (microliters)/well of secondary antibody solution (Alexafluor 488 conjugate anti-mouse IgG (LifeTechnologies # A21202) diluted 1:1000 and Hoechst 33342 1 μg/ml diluted in Antibody Dilution Buffer) were dispensed into each well. Samples were incubated for 2 hours at room temperature. Samples were washed 3 times with 100 μL/well of PBS using a Biotek EL406. Quantitative fluorescence imaging of ESR1 was carried out using a Cellomics Arrayscan V (Thermo). […]

| SMILES | ER-alpha MCF7HCS Sinf [%] | ERalpha (WT) MCF7HCS (Sinf) |
| --- | --- | --- |
| C[C@@H]1Cn2c(cc3ccccc32)[C@H](c2c(F)cc(NC3CN(CCCF)C3)cc2F)N1CC(F)(F)F [Example 145, N-(3,5-Difluoro-4-((1S,3R)-3-methyl-2-(2,2,2-trifluoroethyl)-1,2,3,4-tetrahydropyrazino[1,2-a]indol-1-yl)phenyl)-1-(3-fluoropropyl)azetidin-3-amine] | −87 |  |
| C[C@@H]1Cn2c(cc3ccccc32)[C@@H](c2c(F)cc([C@H](O)C3CN(CCCF)C3)cc2F)N1CC(F)(F)CO (single isomer, unassigned) [Example 164] |  | −98.6 |
| C[C@@H]1Cc2c([nH]c3ncccc23)[C@@H](c2c(F)cc(OC3CN(CCCF)C3)cc2F)N1CC(C)(C)F (single isomer, unassigned) [Example 120] | −88.0 |  |
| C[C@@H]1Cc2c([nH]c3ccccc23)[C@@](C)(c2ccc(OCCN3CC(CF)C3)cc2)N1CC(C)(C)F [Example 135, (1R,3R)-2-(2-Fluoro-2-methylpropyl)-1-(4-(2-(3-(fluoromethyl)azetidin-1-yl)ethoxy)phenyl)-1,3-dimethyl-2,3,4,9-tetrahydro-1H-pyrido[3,4-b]indole] | −95 |  |
| CC(C)(F)CN1CCCc2c([nH]c3ccccc23)[C@H]1c1c(F)cc(OCCN2CC(CF)C2)cc1F [Example 103, (R)-1-(2,6-difluoro-4-(2-(3-(fluoromethyl)azetidin-1-yl)ethoxy)phenyl)-2-(2-fluoro-2-methylpropyl)-1,2,3,4,5,10-hexahydroazepino[3,4-b]indole] | −96.7 |  |
| CC1Cc2c(c3ccccc3n2C)C(c2c(F)cc(OCCN3CC(CF)C3)cc2F)N1CC(C)(C)F (racemic) [Example 139, (±)-1-(2-6-difluoro-4-(2-(3-(fluoromethyl)azetidin-1-yl)ethoxy)phenyl)-2-(2-fluoro-2-methylpropyl)-3,5-dimethyl-2,3,4,5-tetrahydro-1H-pyrido[4,3-b] indole] | −88.6 |  |
| C[C@](F)(CO)CN1CCCc2c([nH]c3ccccc23)[C@H]1c1c(F)cc(OCCN2CC(CF)C2)cc1F [Example 118, (R)-3-((R)-1-(2,6-difluoro-4-(2-(3-(fluoromethyl)azetidin-1-yl)ethoxy)phenyl)-3,4,5,10-tetrahydroazepino[3,4-b]indol-2(1H)-yl)-2-fluoro-2-methylpropan-1-ol] | −95.9 |  |
| CC(C)(F)CN1[C@H](c2c(F)cc(OCCN3CC(CF)C3)cc2F)c2[nH]c3ccccc3c2[C@H]2CC[C@H]21 [Example 138, (2aR,4R,9cR)-4-(2,6-difluoro-4-(2-(3-(fluoromethyl)azetidin-1-yl)ethoxy)phenyl)-3-(2-fluoro-2-methylpropyl)-2,2a,3,4,5,9c-hexahydro-1H-cyclobuta[5,6]pyrido[3,4-b]indole] | −68 |  |
| C[C@@H]1Cn2c(cc3ccccc32)[C@@H](c2c(F)cc(OC3CN(CCCF)C3)cc2F)N1CC(F)(F)F [Example 141, (1R,3R)-1-(2,6-difluoro-4-((1-(3-fluoropropyl)azetidin-3-yl)oxy)phenyl)-3-methyl-2-(2,2,2-trifluoroethyl)-1,2,3,4-tetrahydropyrazino[1,2-a]indole] | −103 |  |

The next lines start with the values.

| ER-alpha MCF7HCS Sinf [%] | ERalpha (WT) MCF7HCS (Sinf) | SMILES |
| --- | --- | --- |
| −64.5 |  | CC(C)C(=O)N1[C@H](c2c(F)cc(OCCN3CC(CF)C3)cc2F)c2sc3ccccc3c2C[C@H]1C (relative stereo) [Example 102, 1-((1,3-trans)-1-(2,6-difluoro-4-(2-(3-(fluoromethyl)azetidin-1-yl)ethoxy)phenyl)-3-methyl-3,4-dihydrobenzo[4,5]thieno[2,3-c]pyridin-2(1H)-yl)-2-methylpropan-1-one] |
| −99 |  | C[C@H]1Cc2sc3ccccc3c2[C@@H](c2ccc(OCCN3CC(CF)C3)cc2)N1CC(C)(C)F [Example 131, (1R,3S)-2-(2-fluoro-2-methylpropyl)-1-(4-(2-(3-(fluoromethyl)azetidin-1-yl)ethoxy)phenyl)-3-methyl-1,2,3,4-tetrahydrobenzo[4,5]thieno[3,2-c]pyridine] |
| −99 |  | C[C@@H]1Cc2[nH]c3ccccc3c2[C@@H](c2c(F)cc(NC3CN(CCCF)C3)cc2F)N1CC(F)(F)F [Example 152, N-(3,5-difluoro-4-((1S,3R)-3-methyl-2-(2,2,2-trifluoroethyl)-2,3,4,5-tetrahydro-1H-pyrido[4,3-b]indol-1-yl)-phenyl)-1-(3-fluoropropyl) azetidin-3-amine] |
| −15 |  | C[C@@H]1Cc2c([nH]c3ccccc23)[C@]2(Cc3ccc(OC4CN(CCCF)C4)cc3C2)N1CC(F)(F)F [Example 140] |
| −100 |  | C[C@@H]1Cn2c(cc3ccccc32)[C@@H](c2c(F)cc(OC3CN(CCCF)C3)cc2F)N1CC(C)(C)F [Example 110, (1R,3R)-1-(2,6-Difluoro-4-((1-(3-fluoropropyl)azetidin-3-yl)oxy)phenyl)-2-(2-fluoro-2-methylpropyl)-3-methyl-1,2,3,4-tetrahydropyrazino[1,2-a]indole] |
|  | −101 | C[C@@H]1Cc2sc3ccccc3c2[C@@H](c2c(F)cc(NC3CN(CCCF)C3)cc2F)N1CC(F)(F)CO [Example 166, 3-((1R,3R)-1-(2,6-difluoro-4-((1-(3-fluoropropyl)azetidin-3-yl)amino)phenyl)-3-methyl-3,4-dihydrobenzo[4,5]thieno[3,2-c]pyridin-2(1H)-yl)-2,2-difluoropropan-1-ol] |
| −50 |  | C[C@@H]1CCN(CC(C)(C)F)[C@@H](c2c(F)cc(OCCN3CC(CF)C3)cc2F)c2[nH]c3ccccc3c21 [Example 126, (1S,5R)-1-(2,6-difluoro-4-(2-(3-(fluoromethyl)azetidin-1-yl)ethoxy)phenyl)-2-(2-fluoro-2-methylpropyl)-5-methyl-1,2,3,4,5,10-hexahydroazepino[3,4-b]indole] |
|  | −100 | C[C@@H]1Cn2c(cc3ccccc32)[C@@H](c2c(F)cc([C@@H](O)C3CN(CCCF)C3)cc2F)N1CC(F)(F)CO (single isomer, unassigned) [Example 163] |
|  | −97.3 | COc1cc2c3c([nH]c2cn1)[C@@H](c1c(F)cc(NC2CN(CCCF)C2)cc1F)N(CC(F)(F)CO)[C@H](C)C3 [Example 161, 3-((1R,3R)-1-(2,6-Difluoro-4-((1-(3-fluoropropyl)azetidin-3-yl)amino)phenyl)-6-methoxy-3-methyl-3,4-dihydro-1H-pyrrolo[2,3-c:5,4-c′]dipyridin-2(9H)-yl)-2,2-difluoropropan-1-ol] |
